Experimental findings from US20240101592A1, “COMPOSITIONS AND METHODS FOR TREATING CNS DISORDERS” (Sage Therapeutics, Inc., priority 2020, published 2024) are described below.

Each structure is given as a SMILES string.

This assay deals with GABAA receptor ([35S]-TBPS binding, rat brain cortical membranes). In words: Steroid inhibition of [35S]-TBPS binding. The settings on record: 3 nM [35S]-TBPS, in the presence of 5 mM GABA, 90 min at room temp. The procedure:
Steroid Inhibition of TBPS Binding
[^35S]-t-Butylbicyclophosphorothionate (TBPS) binding assays using rat brain cortical membranes in the presence of 5 mM GABA has been described (Gee et al, J. Pharmacol. Exp. Ther. 1987, 241, 346-353; Hawkinson et al, Mol. Pharmacol. 1994, 46, 977-985; Lewin, A. H et al., Mol. Pharmacol. 1989, 35, 189-194).
Briefly, cortices are rapidly removed following decapitation of carbon dioxide-anesthetized Sprague-Dawley rats (200-250 g). The cortices are homogenized in 10 volumes of ice-cold 0.32 M sucrose using a glass/teflon homogenizer and centrifuged at 1500×g for 10 min at 4° C. The resultant supernatants are centrifuged at 10,000×g for 20 min at 4° C. to obtain the P2 pellets. The P2 pellets are resuspended in 200 mM NaCl/50 mM Na—K phosphate pH 7.4 buffer and centrifuged at 10,000×g for 10 min at 4° C. This washing procedure is repeated twice and the pellets are resuspended in 10 volumes of buffer. Aliquots ([…]) of the membrane suspensions are incubated with 3 nM [^35S]-TBPS and […] aliquots of test drug dissolved in dimethyl sulfoxide (DMSO) (final 0.5%) in the presence of 5 mM GABA. The incubation is brought to a final volume of 1.0 mL with buffer. Nonspecific binding is determined in the presence of […] and ranged from 15 to 25%. Following a 90 min incubation at room temp, the assays are terminated by filtration through glass fiber filters (Schleicher and Schuell No. 32) using a cell harvester (Brandel) and rinsed three times with ice-cold buffer. Filter bound radioactivity is measured by liquid scintillation spectrometry. Non-linear curve fitting of the overall data for each drug averaged for each concentration is done using Prism (GraphPad). […] The concentration of test compound producing 50% inhibition (IC50) of specific binding and the maximal extent of inhibition (Imax) are determined for the individual experiments with the same model used for the overall data and then the means±SEM.s of the individual experiments are calculated.
Various compounds are or can be screened to determine their potential as modulators of [^35S]-TBPS binding in vitro. These assays are or can be performed in accordance with the above.

Turning to `COC[C@@]1(O)CC[C@H]2[C@@H](CC[C@@H]3[C@@H]2CC[C@@]2(C)[C@H]3[C@@H]3C[C@@H]3[C@@H]2[C@@H](C)Cn2nnc(C)n2)C1` [Compound No. 18, (2R,4aS,4bR,6aS,7R,7aS,8aR,8bR,8cR,10aS)-2-(methoxymethyl)-6a-methyl-7-((R)-1-(5-methyl-2H-tetrazol-2-yl)propan-2-yl)octadecahydrocyclopropa[4,5]cyclopenta[1,2-a]phenanthren-2-ol], the IC50 (usually the point on the concentration scale where inhibition reaches its midpoint) was 100 to 1000 nM.
For the molecule `CCC[C@@]1(O)CC[C@@]2(C)[C@@H](CC[C@H]3[C@@H]4[C@@H]5C[C@@H]5[C@H]([C@@](C)(O)Cn5cc(C#N)cn5)[C@@]4(C)CC[C@@H]32)C1` [Compound No. 14, 1-((R)-2-hydroxy-2-((2R,4aS,4bS,6aS,7S,7aS,8aR,8bS,8cR,10aS)-2-hydroxy-4a,6a-dimethyl-2-propyloctadecahydrocyclopropa[4,5]cyclopenta[1,2-a]phenanthren-7-yl)propyl)-1H-pyrazole-4-carbonitrile], the IC50 was greater than 1000 nM.
Turning to `C[C@@]1(O)CC[C@H]2[C@H](CC[C@@H]3[C@@H]2CC[C@]2(C)[C@@H]([C@H]4C[C@@H]4Cn4cc(C#N)cn4)CC[C@@H]32)C1` [Compound No. 24, 1-(((1S,2R)-2-((3R,5R,8R,9R,10S,13S,14S,17R)-3-hydroxy-3,13-dimethylhexadecahydro-1H-cyclopenta[a]phenanthren-17-yl)cyclopropyl)methyl)-1H-pyrazole-4-carbonitrile], the IC50 is less than 100 nM.
Take `CC(Cn1cc(C#N)cn1)[C@H]1[C@H]2C[C@H]2[C@H]2[C@@H]3CC[C@@H]4C[C@](C)(O)CC[C@@H]4[C@H]3CC[C@@]21C` (single isomer, unassigned) [Compound No. 11]: the IC50 is less than 100 nM.
Take `C[C@@]1(O)CC[C@H]2[C@H](CC[C@@H]3[C@@H]2CC[C@@]2(C)[C@H]3C[C@@H]3C[C@@H]3[C@@H]2C(=O)Cn2cc(C#N)cn2)C1` [Compound No. 6, 1-(2-((2R,4aS,4bR,6aS,7S,7aS,8aS,9aS,9bR,11aR)-2-hydroxy-2,6a-dimethyloctadecahydro-1H-cyclopropa[b]chrysen-7-yl)-2-oxoethyl)-1H-pyrazole-4-carbonitrile]: the IC50 was less than 100 nM.
